Data on three compounds can be found in ChEMBL document CHEMBL5608181, “Discovery of indazole inhibitors for heat shock protein 90 as anti-cancer agents” (Eur J Med Chem, 2024).

The source made the active and inactive calls. The calls are words filed in the database; no cut-off is given here. Bounds are passed on as bounds.

Series [1] has as its system JIMT-1. Description: Antiproliferative activity against human JIMT-1 cells assessed as inhibition of cell viability at 10 uM measured after 72 hrs by CellTiter 96 Aqueous One Solution Cell Proliferation Assay. Type of series: functional, cell-based.
For series [2], the system named is BT-474. The experiment in a line: Antiproliferative activity against human BT-474 cells assessed as inhibition of cell viability at 10 uM measured after 72 hrs by CellTiter 96 Aqueous One Solution Cell Proliferation Assay. Type of series: functional, cell-based.
In series [3] the test system is HEK293. The experiment in a line: Cytotoxicity against HEK293 cells assessed as reduction in cell viability at 10 uM measured after 72 hrs by CellTiter 96 Aqueous One Solution Cell Proliferation Assay. It is filed as toxicity, cell-based. The settings on record: human, hek293, 72 h.
For series [4], the species on record is Homo sapiens. Description: Inhibition of N-terminal HSP90 (unknown origin) at 10 uM by AlphaLISA assay. On the technique in general: Alpha assays give light when donor and acceptor beads are brought close together.
The target of series [5] is CYP2C19 (Homo sapiens, UniProt P33261). Description: Inhibition of CYP2C19 (unknown origin) at 10 uM relative to control. Type of series: ADME.
CYP2C19, sequence (P33261 whole entry): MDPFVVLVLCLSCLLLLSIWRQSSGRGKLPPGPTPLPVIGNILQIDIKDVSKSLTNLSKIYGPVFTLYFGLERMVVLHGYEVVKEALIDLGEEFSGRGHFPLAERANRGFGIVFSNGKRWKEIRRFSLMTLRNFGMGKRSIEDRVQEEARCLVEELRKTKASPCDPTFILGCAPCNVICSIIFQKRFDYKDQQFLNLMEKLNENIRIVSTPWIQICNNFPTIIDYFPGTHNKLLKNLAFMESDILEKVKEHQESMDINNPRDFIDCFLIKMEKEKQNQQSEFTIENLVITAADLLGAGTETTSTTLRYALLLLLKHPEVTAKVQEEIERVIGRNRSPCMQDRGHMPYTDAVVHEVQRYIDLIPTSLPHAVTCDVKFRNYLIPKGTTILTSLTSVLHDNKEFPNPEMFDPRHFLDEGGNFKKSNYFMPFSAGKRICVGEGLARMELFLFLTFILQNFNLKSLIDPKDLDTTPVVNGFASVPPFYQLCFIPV
For series [6], the target named is CYP3A4 (Homo sapiens, UniProt P08684). Description: Inhibition of CYP3A4 (unknown origin) at 10 uM relative to control. It is filed as ADME.
CYP3A4, sequence (P08684 whole entry): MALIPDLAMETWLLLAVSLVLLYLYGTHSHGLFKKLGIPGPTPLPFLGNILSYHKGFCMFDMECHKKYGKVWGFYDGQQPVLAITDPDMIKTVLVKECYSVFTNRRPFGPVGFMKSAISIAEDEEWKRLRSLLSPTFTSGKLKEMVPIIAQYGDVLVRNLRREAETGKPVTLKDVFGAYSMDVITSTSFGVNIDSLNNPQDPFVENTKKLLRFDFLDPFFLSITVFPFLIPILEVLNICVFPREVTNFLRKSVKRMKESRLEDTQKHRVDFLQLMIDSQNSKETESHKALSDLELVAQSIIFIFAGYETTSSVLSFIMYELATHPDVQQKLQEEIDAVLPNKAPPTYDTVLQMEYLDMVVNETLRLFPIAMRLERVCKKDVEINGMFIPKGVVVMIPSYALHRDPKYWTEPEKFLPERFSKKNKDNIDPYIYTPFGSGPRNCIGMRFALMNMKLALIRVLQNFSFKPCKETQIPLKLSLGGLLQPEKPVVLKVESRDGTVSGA
The target in series [7] is CYP2C9 (Homo sapiens, UniProt P11712). The experiment in a line: Inhibition of CYP2C9 (unknown origin) at 10 uM relative to control. It is filed as ADME.
CYP2C9, sequence (P11712 whole entry): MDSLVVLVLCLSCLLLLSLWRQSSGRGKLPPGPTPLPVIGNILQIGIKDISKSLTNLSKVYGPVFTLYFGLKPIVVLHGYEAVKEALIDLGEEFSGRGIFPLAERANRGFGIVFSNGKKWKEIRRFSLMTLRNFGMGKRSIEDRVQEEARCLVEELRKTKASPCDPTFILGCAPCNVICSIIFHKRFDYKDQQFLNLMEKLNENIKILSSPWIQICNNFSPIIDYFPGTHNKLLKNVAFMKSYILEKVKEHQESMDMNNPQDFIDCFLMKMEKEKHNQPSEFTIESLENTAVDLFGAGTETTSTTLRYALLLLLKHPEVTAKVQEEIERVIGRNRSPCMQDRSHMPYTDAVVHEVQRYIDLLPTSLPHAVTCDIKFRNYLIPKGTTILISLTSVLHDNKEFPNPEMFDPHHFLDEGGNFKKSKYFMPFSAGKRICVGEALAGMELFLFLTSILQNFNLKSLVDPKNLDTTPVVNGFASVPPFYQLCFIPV
Series [8] addresses T1, CYP1A2 (Homo sapiens, UniProt P05177).
T1 sequence (P05177 whole entry): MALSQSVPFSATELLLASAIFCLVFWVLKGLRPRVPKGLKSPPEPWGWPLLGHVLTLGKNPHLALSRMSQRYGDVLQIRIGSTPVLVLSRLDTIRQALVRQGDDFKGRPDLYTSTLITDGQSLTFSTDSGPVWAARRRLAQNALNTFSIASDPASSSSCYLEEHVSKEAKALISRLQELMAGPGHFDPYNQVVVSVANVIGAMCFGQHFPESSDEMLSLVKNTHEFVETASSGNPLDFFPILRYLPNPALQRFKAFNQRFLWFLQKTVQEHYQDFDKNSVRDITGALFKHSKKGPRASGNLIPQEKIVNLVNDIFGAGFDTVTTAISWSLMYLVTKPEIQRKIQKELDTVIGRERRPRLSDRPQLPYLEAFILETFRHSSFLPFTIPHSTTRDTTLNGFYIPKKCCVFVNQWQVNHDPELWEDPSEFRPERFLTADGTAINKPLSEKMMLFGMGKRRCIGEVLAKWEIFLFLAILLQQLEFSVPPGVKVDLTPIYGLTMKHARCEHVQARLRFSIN
The experiment in a line: Inhibition of CYP1A2 (unknown origin) at 10 uM relative to control. Type of series: ADME.

On to `COCCn1cc(NC(=O)c2ccc3c(c2OC)C=CC(C)(C)O3)c2ccccc21`, for which the result in series [1] and in series [2] was Active. Moreover, the Activity entry in series [3] is recorded as “Toxic”.
The term inhibition denotes the relative decrease from the control value, in per cent. Consider `CC(C)c1cc(C(=O)N2Cc3ccc(CN4CCN(C)CC4)cc3C2)c(O)cc1O`, for which the inhibition entry in series [4] was “Active”.
Consider `CC(=O)N1CCN(c2ccc(OCC3COC(Cn4ccnc4)(c4ccc(Cl)cc4Cl)O3)cc2)CC1` (stereo not drawn) [KETOCONAZOLE], for which the inhibition at 10 µM in series [5] is over 100%; in series [6], 32%; in series [7], 96.8%; in series [8], over 100%.
